The values that follow come from patent publication US10364263B2, “Cyclic phosphates and cyclic phosphoramidates for the treatment of neurologic disorders” (Retrophin, Inc., priority 2015, dated 2019).

Read-outs that look alike come from different tables or passages of the source.

The nature of series [1]: Stability in mouse plasma. The series is classed as in vitro ADME. A digest of the protocol: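 Test compound at 3 μM (0.1% DMSO) was incubated in mouse or human plasma at 37 °C and sampled in duplicate at 0, 10, 20, 30, 40 and 60 min. Reactions were stopped with acetonitrile/formic acid containing internal standard. Remaining parent was measured by UPLC-MS/MS without a calibration curve.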

Series [2] deals with PANK2 silenced human neuroblastoma IMR32 cells (PANK2−/−). Nature of the series: Coenzyme A assay in PANK2 silenced cells (LC-MS quantification of free CoA). The following applies: compound added twice (24 h + 24 h), relative to 0.1% DMSO controls. The series is classed as cell-based. A digest of the protocol:
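PANK2 shRNA-silenced IMR32 neuroblastoma cells were treated with compound (0.1% DMSO) for 24 h, then re-dosed with fresh compound for a further 24 h at 37 °C. TFA extracts of 1×10^6 cells were assayed for free CoA by LC-MS/MS (MRM 768.1→261.6/136.1). Results are given as fold change versus DMSO controls.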

Series [3] is described as follows: Chemical stability in aqueous solution (phosphate buffered saline, NMR).
The nature of the next series: physchem. The following applies: buffer, phosphate buffered saline, 10 mM phosphate buffer pH 7.5, 37° C.
The mark [4] stands for this setting: pH 7.5, t1/2 (h) Diastereoisomer A, 10 mM phosphate buffer pH 7.5, 37° C., Diastereoisomer A = upfield shift in the 31P NMR.
Where [5] appears, read: pH 7.5, t1/2 (h) Diastereoisomer B, 10 mM phosphate buffer pH 7.5, 37° C., Diastereoisomer B.
[6] abbreviates: Diastereoisomer A (upfield shift in 31P NMR), 3 μM, 37° C., mouse plasma, read-out: t1/2, Mouse Plasma, Diastereoisomer A.
[7] abbreviates: pH 7.5, t1/2 (h) Diastereoisomer A, Diastereoisomer A = upfield shift in the 31P NMR.
Where [8] appears, read: pH 7.5, t1/2 (h) Diastereoisomer B, Diastereoisomer B.

`CC(C)(C)C(=O)OCO[P@@]1(=O)OCC(C)(C)[C@H](C(=O)NCCC(=O)O)O1` [Compound No. 91, 3-((2S,4R)-5,5-dimethyl-2-oxido-2-((pivaloyloxy)methoxy)-1,3,2-dioxaphosphinane-4-carboxamido)propanoic acid] had a half-life at 3 µM in series [1] (mouse, plasma) of 30.6 min. In addition, the “PANK2−/− CoA (Fold Increase): fold increase in Coenzyme A (CoA) levels relative to controls” value in series [2] is recorded as 4.03 Fold Increase.
`COC(=O)CCNC(=O)[C@@H]1OP(=O)(N[C@@H](C)C(=O)OCCc2ccccc2)OCC1(C)C` (stereo partly drawn) [Compound No. 2, Methyl 3-((4R)-5,5-dimethyl-2-oxido-2-(((S)-1-oxo-1-phenethoxypropan-2-yl)amino)-1,3,2-dioxaphosphinane-4-carboxamido)propanoate]: in series [1] (mouse, plasma), the half-life at 3 µM was under 9.6 min. For the same compound, the “t1/2, Mouse Plasma, Diastereoisomer B” value in series [1] (mouse, plasma, 3 µM) is under 9.6 min. The “PANK2−/− CoA (Fold Increase): fold increase in Coenzyme A (CoA) levels relative to controls” value in series [2] came out at 6.80 Fold Increase.
The like results for `COC(=O)CCNC(=O)[C@@H]1OP(=O)(OCOC(=O)OC(C)C)OCC1(C)C` (stereo partly drawn) [Compound No. 69, Methyl 3-((4R)-2-(((isopropoxycarbonyl)oxy)methoxy)-5,5-dimethyl-2-oxido-1,3,2-dioxaphosphinane-4-carboxamido)propanoate] were, in that order, under 9.6 min, under 9.6 min and 181.1 Fold Increase.
In turn, `CC1(C)COP(=O)(O)O[C@H]1C(=O)NCCC(=O)O` [compound 108, 3-((4R)-2-hydroxy-5,5-dimethyl-2-oxido-1,3,2-dioxaphosphinane-4-carboxamido)propanoic acid] had a half-life at 1 mM in series [3] (pH 7.5, t1/2 (h), pH 7.5, 37° C., compound not chiral at phosphorous, one value spanning both columns) of over 100 h. The “PANK2−/− CoA (Fold Increase): fold increase in Coenzyme A (CoA) levels relative to controls” value in series [2] is on record as 1.07 Fold Increase.
On to `COC(=O)CCNC(=O)[C@@H]1OP(=O)(N[C@@H](Cc2ccccc2)C(=O)OCc2ccccc2)OCC1(C)C` (stereo partly drawn) [compound 10, benzyl ((4R)-4-((3-methoxy-3-oxopropyl)carbamoyl)-5,5-dimethyl-2-oxido-1,3,2-dioxaphosphinan-2-yl)-L-phenylalaninate], for which the “PANK2−/− CoA (Fold Increase): fold increase in Coenzyme A (CoA) levels relative to controls” value in series [2] turned out to be 1.05 Fold Increase.
In the case of `COC(=O)CCNC(=O)[C@@H]1OP(=O)(OCOC(=O)c2ccccc2)OCC1(C)C` (stereo partly drawn) [Compound No. 64, (((4R)-4-((3-methoxy-3-oxopropyl)carbamoyl)-5,5-dimethyl-2-oxido-1,3,2-dioxaphosphinan-2-yl)oxy)methyl benzoate], in series [1] (mouse, plasma), the half-life at 3 µM was under 9.6 min. Further, the “t1/2, Mouse Plasma, Diastereoisomer B” value in series [1] (mouse, plasma, 3 µM) is under 9.6 min. Besides, the half-life at 1 mM in series [3] (setting [4]) is 87 h; in series [3] (setting [5]), 13 h. The “PANK2−/− CoA (Fold Increase): fold increase in Coenzyme A (CoA) levels relative to controls” value in series [2] amounted to 278.1 Fold Increase.
As to `COC(=O)CCNC(=O)[C@@H]1OP(=O)(NCCN2CCCC2)OCC1(C)C` (stereo partly drawn) [compound 109, methyl 3-((4R)-5,5-dimethyl-2-oxido-2-((2-(pyrrolidin-1-yl)ethyl)amino)-1,3,2-dioxaphosphinane-4-carboxamido)propanoate], the half-life at 3 µM in series [1] (setting [6]) was under 9.6 min. For the same compound, the half-life in the series “physchem” (setting [7]) was 48 h; in “physchem” (setting [8]) it was 15.4 h. Besides, the “PANK2−/− CoA (Fold Increase): fold increase in Coenzyme A (CoA) levels relative to controls” value in series [2] came to 1.87 Fold Increase.
In turn, `COC(=O)CCNC(=O)[C@@H]1OP(=O)(OCOC(=O)C(C)(C)C)OCC1(C)C` (stereo partly drawn) [Compound No. 65, (((4R)-4-((3-methoxy-3-oxopropyl)carbamoyl)-5,5-dimethyl-2-oxido-1,3,2-dioxaphosphinan-2-yl)oxy)methyl pivalate] came in with a half-life at 3 µM in series [1] (mouse, plasma) of under 9.6 min. In series [1] (mouse, plasma, 3 µM), the “t1/2, Mouse Plasma, Diastereoisomer B” value was under 9.6 min. In addition, the half-life at 1 mM in series [3] (setting [4]) is 40.5 h; in series [3] (setting [5]), 7.2 h. Further, the “PANK2−/− CoA (Fold Increase): fold increase in Coenzyme A (CoA) levels relative to controls” value in series [2] stood at 222.6 Fold Increase.
`COC(=O)CCNC(=O)[C@@H]1OP(=O)(N[C@@H](C)C(=O)OCc2cccnc2)OCC1(C)C` (stereo partly drawn) [compound 24, methyl 3-((4R)-5,5-dimethyl-2-oxido-2-(((S)-1-oxo-1-(pyridin-3-ylmethoxy)propan-2-yl)amino)-1,3,2-dioxaphosphinane-4-carboxamido)propanoate] came in with a half-life at 3 µM in series [1] (mouse, plasma) of under 9.6 min. Also, the “t1/2, Mouse Plasma, Diastereoisomer B” value in series [1] (mouse, plasma, 3 µM) is under 9.6 min. The “PANK2−/− CoA (Fold Increase): fold increase in Coenzyme A (CoA) levels relative to controls” value in series [2] is 0.92 Fold Increase.
As to `COC(=O)[C@H](C)NP1(=O)OCC(C)(C)[C@H](C(=O)NCCC(=O)OCc2ccncc2)O1` (stereo partly drawn) [compound 20, (2S)-methyl 2-(((4R)-5,5-dimethyl-2-oxido-4-((3-oxo-3-(pyridin-4-ylmethoxy)propyl)carbamoyl)-1,3,2-dioxaphosphinan-2-yl)amino)propanoate], the half-life at 3 µM in series [1] (mouse, plasma) was under 9.6 min. For the same compound, the “t1/2, Mouse Plasma, Diastereoisomer B” value in series [1] (mouse, plasma, 3 µM) is under 9.6 min. The half-life at 1 mM in series [3] (setting [4]) and in series [3] (setting [5]) was over 80 h in each case. In series [2], the “PANK2−/− CoA (Fold Increase): fold increase in Coenzyme A (CoA) levels relative to controls” value worked out at 0.9 Fold Increase.
In series [1] (mouse, plasma), `COC(=O)CCNC(=O)[C@@H]1OP(=O)(OCOC(=O)c2cncs2)OCC1(C)C` (stereo partly drawn) [Compound No. 70, (((4R)-4-((3-methoxy-3-oxopropyl)carbamoyl)-5,5-dimethyl-2-oxido-1,3,2-dioxaphosphinan-2-yl)oxy)methyl thiazole-5-carboxylate] showed a half-life at 3 µM of under 9.6 min. The “t1/2, Mouse Plasma, Diastereoisomer B” value in series [1] (mouse, plasma, 3 µM) was under 9.6 min. Moreover, the “PANK2−/− CoA (Fold Increase): fold increase in Coenzyme A (CoA) levels relative to controls” value in series [2] is 87.75 Fold Increase.
As for `COC(=O)CCNC(=O)[C@@H]1OP(=O)(OCCSC(=O)C(C)(C)C)OCC1(C)C` (stereo partly drawn) [Compound No. 2-133, Methyl 3-((4R)-5,5-dimethyl-2-oxido-2-(2-(pivaloylthio)ethoxy)-1,3,2-dioxaphosphinane-4-carboxamido)propanoate], the “PANK2−/− CoA (Fold Increase): fold increase in Coenzyme A (CoA) levels relative to controls” value in series [2] worked out at 89.53 Fold Increase.
In turn, `COC(=O)CCNC(=O)[C@@H]1OP(=O)(NCCC(=O)OCc2ccccc2)OCC1(C)C` (stereo partly drawn) [compound 117, benzyl 3-(((4R)-4-((3-methoxy-3-oxopropyl)carbamoyl)-5,5-dimethyl-2-oxido-1,3,2-dioxaphosphinan-2-yl)amino)propanoate] registered a half-life at 3 µM in series [1] (mouse, plasma) of under 9.6 min. In addition, the “t1/2, Mouse Plasma, Diastereoisomer B” value in series [1] (mouse, plasma, 3 µM) is under 9.6 min. Also, the “PANK2−/− CoA (Fold Increase): fold increase in Coenzyme A (CoA) levels relative to controls” value in series [2] is recorded as 1.06 Fold Increase.
With `COC(=O)CCNC(=O)[C@@H]1OP(=O)(N[C@@H](C)C(=O)OC)OCC1(C)C` (stereo partly drawn) [compound 5, methyl 3-((4R)-2-(((S)-1-methoxy-1-oxopropan-2-yl)amino)-5,5-dimethyl-2-oxido-1,3,2-dioxaphosphinane-4-carboxamido)propanoate], the half-life at 3 µM in series [1] (setting [6]) is under 9.6 min. For the same compound, the “t1/2, Mouse Plasma, Diastereoisomer B” value in series [1] (Diastereoisomer B, 3 μM, 37° C., mouse plasma) is under 9.6 min. Besides, the half-life in the series “physchem” (setting [7]) and in “physchem” (setting [8]) was 40 h each time. Moreover, the “PANK2−/− CoA (Fold Increase): fold increase in Coenzyme A (CoA) levels relative to controls” value in series [2] amounted to 1.15 Fold Increase.
For the compound `COC(=O)CCNC(=O)[C@@H]1OP(=O)(N[C@@H](C)C(=O)OCc2cc(C)cc(C)c2)OCC1(C)C` (stereo partly drawn) [compound 3, (2S)-3,5-dimethylbenzyl 2-(((4R)-4-((3-methoxy-3-oxopropyl)carbamoyl)-5,5-dimethyl-2-oxido-1,3,2-dioxaphosphinan-2-yl)amino)propanoate], the half-life at 3 µM in series [1] (mouse, plasma) was under 9.6 min. Further, the “t1/2, Mouse Plasma, Diastereoisomer B” value in series [1] (mouse, plasma, 3 µM) was under 9.6 min. In addition, the half-life at 1 mM in series [3] (setting [4]) and in series [3] (setting [5]) was over 80 h each time. Also, in series [2], the “PANK2−/− CoA (Fold Increase): fold increase in Coenzyme A (CoA) levels relative to controls” value is 1.65 Fold Increase.
As for `CCc1cc(C(=O)OCOP2(=O)OCC(C)(C)[C@H](C(=O)NCCC(=O)OC)O2)n(C)n1` (stereo partly drawn) [Compound No. 84, (((4R)-4-((3-methoxy-3-oxopropyl)carbamoyl)-5,5-dimethyl-2-oxido-1,3,2-dioxaphosphinan-2-yl)oxy)methyl 3-ethyl-1-methyl-1H-pyrazole-5-carboxylate], the half-life at 3 µM in series [1] (mouse, plasma) was under 9.6 min. In addition, in series [1] (mouse, plasma, 3 µM), the “t1/2, Mouse Plasma, Diastereoisomer B” value was under 9.6 min. For the same compound, the “PANK2−/− CoA (Fold Increase): fold increase in Coenzyme A (CoA) levels relative to controls” value in series [2] turned out to be 325.47 Fold Increase.
With `COC(=O)CCNC(=O)[C@@H]1OP(=O)(N[C@@H](C)C(=O)OCc2ccccc2)OCC1(C)C` (stereo partly drawn) [Compound No. 11, Benzyl ((4R)-4-((3-methoxy-3-oxopropyl)carbamoyl)-5,5-dimethyl-2-oxido-1,3,2-dioxaphosphinan-2-yl)-L-alaninate], the half-life at 1 mM in series [3] (pH 7.5, half-lives, phosphate buffered saline solution, both diastereoisomers) is over 60 h; in series [3] (setting [4]) it was over 100 h; in series [3] (setting [5]) it was over 60 h. In addition, in series [2], the “PANK2−/− CoA (Fold Increase): fold increase in Coenzyme A (CoA) levels relative to controls” value is on record as 0.99 Fold Increase.
